According to patent publication US20140050810A1, “ANTI-OBESITY COMPOSITION COMPRISING LYCIUM CHINENSIS LEAF EXTRACT AND BETAINE AS ACTIVE INGREDIENT” (BIONUTRIGEN CO., LTD., priority 2012, published 2014):
Several values for one entry are separate records, joined by “and”; a condition that tells them apart may be missing. Equal entries are not always repeated. Marks after values point to notes of the source that are not given here.

Columns and labels:
[1] = Anti-obesity effect of betaine and Lycium chinensis leaf extract powder in human body; format: in vivo; details: Betaine 3 g twice/day 43 days
Experimental: In order to evaluate the anti-obesity effect of Lycium chinensis leaf extract powder and betaine, subjects' weight, body mass index (BMI), body fat, body fat percentage, and muscle mass were measured prior to the administration of betaine and Lycium chinensis leaf extract powder. Betaine and Lycium chinensis leaf extract powder were separately dissolved in water and administered at a single dose of 3 g and 10 g, respectively, twice a day just before breakfast and supper.
In consideration of their component properties, the Lycium chinensis leaf extract powder, which comprised various components, was administered for 22 days while 43 days was also allocated for the administration of betaine, a single compound. Preventive and therapeutic effects of the two ingredients on obesity were evaluated in view of changes in weight, BMI, body fat, body fat percentage, and muscle mass.

[2] = tested on: high-fat diet-induced obesity models; assay: Weight change in high-fat diet-induced obesity mice; format: in vivo, C57BL/6 mice; details: JBB21 1, LWE 2, JBB21+LWE 1+2 g/kg
Experimental: (§1) Betaine (JBB21), a Lycium chinensis hot water extract powder (LWE), or a mixture thereof (JBB21+LWE) was orally administered five times a week to high-fat diet-induced obesity models and their effects on obesity, hyperlipidemia and fatty liver were analyzed. JBB21 and LWE were purchased as white and brown powders, respectively, from Bionutrigen, and stored at room temperature before use in the experiment.
(§2) C57BL/6, specific pathogen-free (SPF) mice (male, six weeks old, Division of Biomedical Research, Korea Research Institute of Bioscience and Biotechnology) were used as the test animals.
(§3) For comparison, a negative control and an obese group (high fat diet, HFD) were allowed to freely eat a radiation-sterilized control diet (CD, 10% kcal, Research Diets) and a high fat diet (HFD, 60% Kcal, Research Diets, supplied by Central Lab. Animal), respectively, during the administration of JBB21, LWE, or JBB21+LWE.
(§4) JBB21, LWE, and JBB21+LWE were dissolved in 3.D.W at concentrations of 100 mg/mL, 200 mg/mL, and 100+200 mg/mL, respectively, and each of the solutions was orally administered at a dose of 10 mL/kg five times a week for 56 days.
The negative control (CD), the obese group (HFD), and the test groups (JBB21, LWE, and JBB21+LWE) were monitored three times a week for weight change and diet intake before and during administration.
Each of the solutions of JBB21 and LWE was administered at a single dose of 10 mL/kg five times a week for 56 days. […] The LWE (2 g/kg) group decreased in weight by 6.5% by the last day, but no significant changes in weight had been observed during the test period.

[3] = tested on: high-fat diet-induced obesity models; assay: Subcutaneous fat and total fat in high-fat diet-induced obesity mice; format: in vivo, C57BL/6 mice; details: JBB21 1, LWE 2, JBB21+LWE 1+2 g/kg
Experimental: as §1, §2, §3, §4
Meanwhile, subcutaneous fat was also measured.
In addition, total fat was measured in the mice administered with JBB21, LWE, or JBB21+LWE.

[4] = tested on: high-fat diet-induced obesity models; assay: Blood leptin, adiponectin and triglyceride levels in high-fat diet-induced obesity mice; format: in vivo, C57BL/6 mice; details: JBB21 1, LWE 2, JBB21+LWE 1+2 g/kg
Experimental: as §1, §2, §3, §4
Blood samples taken on 56 days after the administration of a mixture of JBB21 and LWE were placed in heparin-coated tubes and stored on ice, followed by centrifugation at 6,000 rpm for 5 min. The plasma thus obtained was analyzed for levels of blood leptin, a hormone marker for obesity, adiponectin, an anti-obesity hormone, and triglyceride levels, using an automated biochemistry analyzer (AU400, Olympus, Japan). Leptin and adiponectin vary in secretion and function depending on the level of fat accumulated in the body. The preventive and therapeutic effects of the mixture according to the present invention were determined in view of plasma levels of leptin and adiponectin.
In this regard, the blood levels of the hormones were measured using Mouse Leptin ELISA kit (Cat. #: MOB00) and Mouse Adiponectin ELISA kit (Cat. #: MRP300), respectively, both commercially available from R&D Systems.

[5] = tested on: high-fat diet-induced obesity models; assay: Effect on liver function: liver weight, hepatic triglyceride, GOT, GPT, pathology in high-fat diet-induced obesity mice; format: in vivo, C57BL/6 mice
Experimental: as §1, §2, §3, §4
Mice administered with JBB21, LWE, and JBB21+LWE were euthanized with CO2 gas and underwent laparotomy to excise the livers therefrom. The livers were weighed with a chemical balance, and compared with those from the control and the obese groups. A part of the liver was frozen in liquid nitrogen (LN2) to measure triglyceride and cholesterol contents while the other part was fixed in formalin for pathological analysis.
The frozen liver tissues were homogenized by a homogenizer, followed by centrifugation. The supernatant was analyzed for hepatic triglyceride and cholesterol levels using a triglyceride quantification kit (Cat. #: K622-100), and a cholesterol/cholesteryl ester quantification kit (Cat. #: K603-100), respectively, both commercially available from Biovision.
For pathological analysis, the liver tissue fixed in formalin was embedded in a paraffin block, and sectioned, and stained with H&E (Hematoxylin & Eosin) before observation under an optical microscope (FIG. 1).

[6] = L. chinensis leaf extract powder 10 g twice/day 22 days
[7] = L. chinensis leaf extract powder 10 g twice/day 22 days, baseline
[8] = HFD mice, oral five times a week for 56 days
[9] = compared to the obese group (Vehicle Control)
[10] = HFD mice, JBB21 1, LWE 2, JBB21+LWE 1+2 g/kg
[11] = vs. Vehicle Control, JBB21 1, LWE 2, JBB21+LWE 1+2 g/kg

C[N+](C)(C)CC(=O)O [JBB21, betaine]
BMI, After Administration [1]: 29.3 | BMI, Reduction [1]: 2.7% | Body Fat, After Administration [1, 6]: 25.9 | Body Fat, Change [1, 6]: -1.7 kg | Body Fat, Reduction [1, 6]: 6.2% | Body Fatness (body fat percentage), After Administration [1, 6]: 30.7 | Body Fatness (body fat percentage), Change [1, 6]: -1% | Body Fatness (body fat percentage), Reduction [1, 6]: 3.2% | Muscle Mass, After Administration [1, 6]: 55.5 | Muscle Mass, Change [1, 6]: -0.7 kg | Muscle Mass, Reduction [1, 6]: 1.3% | Weight, After Administration [1, 6]: 84.0 kg | Weight, Change [1, 6]: -3.0 kg | Weight, Reduction [1, 6]: 3.5% | Body Fat, Before Administration [1, 7]: 27.6 | Body Fatness (body fat percentage), Before Administration [1, 7]: 31.7 | Muscle Mass, Before Administration [1, 7]: 56.2 | Weight, Before Administration [1, 7]: 87.0 kg | BMI, Before Administration ([1]; baseline): 30.1 | Weight, day 0 after treatment ([2]; day 0, HFD (60% Kcal) mice, oral five times a week, n = 10, in g (unit assumed)): 31.1 ± 1.5 | Weight, day 11 after treatment ([2]; day 11, HFD (60% Kcal) mice, oral five times a week, n = 10, in g (unit assumed)): 31.9 ± 1.6 | Weight IR(%), day 11 ([2]; day 11, vs. Vehicle Control (obese group)): 5.6% | Weight, day 21 after treatment ([2]; day 21, HFD (60% Kcal) mice, oral five times a week, n = 10, in g (unit assumed)): 34.5 ± 1.8 | Weight IR(%), day 21 ([2]; day 21, vs. Vehicle Control (obese group)): 5.8% | Weight, day 30 after treatment ([2]; day 30, HFD (60% Kcal) mice, oral five times a week, n = 10, in g (unit assumed)): 36.1 ± 2.3 | Weight IR(%), day 30 ([2]; day 30, vs. Vehicle Control (obese group)): 8.8% | Weight, day 39 after treatment ([2]; day 39, HFD (60% Kcal) mice, oral five times a week, n = 10, in g (unit assumed)): 38.4 ± 2.7 | Weight IR(%), day 39 ([2]; day 39, vs. Vehicle Control (obese group)): 9.6* % | Weight, day 51 after treatment ([2]; day 51, HFD (60% Kcal) mice, oral five times a week, n = 10, in g (unit assumed)): 40.9 ± 3.1 | Weight IR(%), day 51 ([2]; day 51, vs. Vehicle Control (obese group)): 9.6* % | Weight, day 56 after treatment ([2]; day 56, HFD (60% Kcal) mice, oral five times a week, n = 10, in g (unit assumed)): 42.0 ± 3.4 | Weight IR(%) / weight loss, day 56 (last day) ([2]; day 56, vs. Vehicle Control (obese group)): 9.4% | Subcutaneous Fat [3, 8]: 2975.4 ± 530.4 mg | Total Fat [3, 8]: 7030.2 ± 947.9 mg | Subcutaneous Fat IR(%) [3, 9]: 14.2% | Total Fat IR(%) [3, 9]: 4.3% and 4.2% | Leptin IR(%) [4, 9]: 9.1% and 9.2% | Leptin (blood) ([4]; plasma, day 56, HFD mice): 134.3 ng/mL | Triglyceride (blood) ([4]; plasma, day 56, HFD mice): 74.7 mg/dL | Triglyceride (blood) IR(%) ([4]; vs. Vehicle Control): 22.3% | Liver Wt ([5]; HFD mice, 56 days, JBB21 1, LWE 2, JBB21+LWE 1+2 g/kg): 1511.2 mg | liver appearance / hepatic fat deposits (in words) ([5]; HFD mice, H&E-stained liver tissue (FIG. 1)): clean and healthy livers almost free of fat deposits | GOT [5, 10]: 57.1 IU/L | GPT [5, 10]: 39.8 IU/L | GOT IR(%) ([5]; compared to the obese group (Vehicle Control), JBB21 1, LWE 2, JBB21+LWE 1+2 g/kg): 59.8% | Hepatic triglyceride ([5]; liver homogenate supernatant, HFD mice, JBB21 1, LWE 2, JBB21+LWE 1+2 g/kg): 3.1389 nmol/mL | Liver Wt IR(%) ([5]; relative to the obese group (Vehicle Control), JBB21 1, LWE 2, JBB21+LWE 1+2 g/kg): 25.4% | GPT IR(%) [5, 11]: 67.2% | Hepatic triglyceride IR(%) [5, 11]: 10.8%
